Measured values from patent publication US9757350B2, “Small molecule inhibitors of replication protein A that also act synergistically with cisplatin” (Indiana University Research and Technology Corp., priority 2010, dated 2017).
“Also recorded” adds a separate entry of the source.

Tests used:
RPA DBD-A/B [1] = molecular target: T1, RPA DBD-A/B (Homo sapiens, UniProt P27694); assay: EMSA DNA binding assay, RPA DBD-A/B construct
T1 construct: made in house; host or cells: E. coli BL21(DE3)
Method: DBD-A/B. The sequence encoding the RPA p70 DNA binding domains A and B were subcloned from the hrRPA plasmid (provided by Dr. Marc Wold, University of Iowa) into the pET15b (Novagen) vector and the protein was expressed in BL21(DE3) cells (Stratagene) as previously described. Briefly, cells were grown to an OD600 of 0.8, induced with 0.5 mM isopropyl-1-thio-β-D-galactopyranoside (IPTG) at 37° C. for 2-3 hours. Small scale DBD-A/B preparations were obtained from 1 L cultures and following induction, cells were harvested by centrifugation at 700×g for 30 minutes at 4° C. The pellets were suspended in Buffer A (20 mM Tris, pH 7.5, 10% glycerol, 500 mM NaCl, 10 mM β-mercaptoethanol (BME) and 1 μg/mL phenylmethanesulfonylfluoride (PMSF), leupeptin and pepstatin) at 1 mL/gram of cells. The cells were lysed by sonication and insoluble material sedimented at 15,000×g for 30 minutes at 4° C. The supernatant was then loaded onto a 10 mL phosphocellulose column, equilibrated with Buffer A, and the flow-through material collected. Imidazole was added to 5 mM to the flow through which was then loaded onto a 2 mL nickel-NTA-agarose column. The column was then washed with Buffer A containing 50 mM imidazole after which protein was eluted from the column using a gradient from 50-500 mM imidazole. Fractions were analyzed for protein content using Bradford and SDS-PAGE analysis in addition to assessment of DNA binding activity as determined by anisotropy. Fractions containing the DBD-A/B protein were pooled and dialyzed overnight in Buffer B (1 mM HEPES, pH 7.2, 10 mM dithiothreitol (DTT), 50 mM NaCl and 1 μg/mL PMSF, pepstatin and leupeptin) and aliquots stored at −80° C.
RPA and DBD-A/B Binding. EMSAs were performed as previously described (22) using a 30-base purine rich ssDNA substrate (3Pc3). […] Gels were dried and quantified via phosphorimager analysis and ImageQuant software (Molecular Dynamics).

[2] = molecular target: T2, full-length heterotrimeric RPA (Homo sapiens, UniProt P27694); details: reference 9; cited from earlier work
T2 construct: Human full-length, un-tagged heterotrimeric RPA (RPA) was purified as previously describe; made in house

[3] = molecular target: T2, full-length heterotrimeric RPA; assay: EMSA in vitro DNA binding assay, full-length heterotrimeric RPA; details: ssDNA substrate
Method: RPA. Human full-length, un-tagged heterotrimeric RPA (RPA) was purified as previously describe.
RPA and DBD-A/B Binding. EMSAs were performed as previously described (22) using a 30-base purine rich ssDNA substrate (3Pc3). Briefly, reactions contained 12.5 nM 5′-[^32P]-labeled 3Pc3 ssDNA and the indicated concentrations of RPA or DBD-A/B. Protein was pre-incubated with the indicated concentration of SMI for 30 minutes at 37° C. DNA was then added and reactions incubated for an additional 5 minutes at room temperature in a final reaction volume of 40 μL. Reactions were then resolved on a 6% native polyacrylamide gel and electrophoresed at 170 volts for 1 hour. Gels were dried and quantified via phosphorimager analysis and ImageQuant software (Molecular Dynamics).

EcSSB = molecular target: T3, EcSSB (Escherichia coli, UniProt P0AGE0); assay: E. coli SSB DNA-binding EMSA; details: 0-200 μM, pre-incubated with protein
T3 construct: purchased Enzymatics, Beverly, Mass
Method: In order to study the specificity of the CheSS19, and MCI13E/F compounds, their effects on two ssDNA binding proteins which use OB-folds for recognition and binding of ssDNA, E. coli SSB (6) and the Schizosaccharomyces pombe Pot1(DBD) domain (11) were studied. The EcSSB protein is a non-sequence-specific ssDNA binding protein, whereas the SpPot1(DBD) protein is a telomere-specific, ssDNA binding protein. In these experiments, protein was pre-incubated with the SMIs, as was done for the RPA experiments, prior to addition of radiolabeled ssDNA to the reactions.
Referring now to FIG. 6B. CheSS19 titration in EcSSB DNA-binding reactions. CheSS19 (0, 25, 50, 100, and 200 μM) was pre-incubated with EcSSB and binding reactions were carried out. Referring now to FIG. 6C. Titration of MCI13E and MCI13F in EcSSB DNA-binding reactions. Concentrations of MCI13E/F used were: 0, 25, 50, 100, and 200 μM. In all panels, the ‘Free’ ssDNA is indicated with an arrow and the ‘Bound’ ssDNA is indicated by brackets. All reactions were performed in the same order and manner as the RPA binding reactions. EcSSB binding was unaffected by CheSS19 and the MCI13E and MCI13F compounds […].
EMSAs were performed similarly to those for the RPA constructs, with the following exceptions. Reactions contained 25 nM of 5′-[^32P]-labeled 3Pc3 ssDNA and 3.3 nM (assuming homotetramer formation) SSB protein (Enzymatics, Beverly, Mass.). Reactions (20 μL) were carried out in 20 mM HEPES, pH 7.5, 1 mM DTT, 0.01% NP-40, 100 mM NaCl, and resolved by 6% native polyacrylamide gel electrophoresis at 25 mA for 2 hours. Gels were dried and quantified via phosphorimager analysis and ImageQuant software (Molecular Dynamics).

RPA DBD-A/B [4] = molecular target: T1, RPA DBD-A/B; assay: Reversibility of DBD-A/B inhibition: dialysis, then fluorescence polarization; type: binding; details: overnight dialysis, then FP with F-dT12
Method: In an experiment reported herein, DBD-A/B was incubated with CheSS19 and then the reaction mix dialyzed overnight to remove dissociable inhibitor. […] Referring now to FIG. 3D. Bar graph showing results of fluorescence polarization analysis of CheSS19 inactivated RPA DBD-A/B. Referring now to FIG. 3D, RPA DBD-A/B was pre-incubated with vehicle (1% DMSO) or CheSS19 (1 pmol in 1% DMSO) for 30 minutes at 37° C. Following incubation, the reaction mix was dialyzed versus H1 buffer overnight at 4° C. The protein was recovered and DNA binding activity measured by FP analysis of binding to an F-dT12 substrate was performed as described in “Methods”. Bar 1, DNA control, Bar 2, control vehicle treated DBD-A/B, Bar 3, Chess19 treated DBD-A/B. The data represent the mean and range of two independent experiments.
Fluorescence polarization experiments were preformed as previously described (21). SMIs were diluted in H1 buffer (10 mM HEPES, pH 7.2, 1 mM DTT, 0.01% NP-40 and 100 mM NaCl) and the final DMSO concentration was kept below 1%.
In order to assess the reversibility of select SMIs, the indicated SMI was pre-incubated with RPA or the DBD-A/B construct for 30 minutes at room temperature. […] The resulting protein was recovered and concentration determined by Bradford analysis. […]

[5] = system: NSCLC cell lines A549 and H460; details: reference 1; cited from earlier work
p21 = assay: Quantitative real-time PCR of p21 mRNA; type: cell-based; details: A549, versus untreated control
Method: Real-Time PCR—A549 cells were plated in 10 cm dishes at 1.5×10^6, allowed to adhere, and treated for 24-48 hours with cisplatin or SMIs (5 μM). Referring now to FIG. 16B, Western blot of cells treated sequentially. For sequential treatment, A549 cells were exposed to cisplatin for 24 hours followed by the addition of SMIs for another 24 hours as above. Referring now to FIG. 16A, A549 cells were treated sequentially or concurrently with cisplatin (5 μM) and MCI13E or MCI13F for 24 total hours. Lysates were probed for p53-ser15-phosphorylation or phosphorylated-ATM. GAPDH was probed as a loading control. Concurrently treated cells were incubated simultaneously with both cisplatin and MCIs for 24 hours. RNA was extracted using RNeasy minikit (Qiagen, Germantown, Md.) per manufacturer's protocol. cDNA was generated using Applied Biosystem's (ABI) High Capacity RNA-to-cDNA kit. Validated gene primer/probe sets, also from ABI, were used for Quantitative Real Time-PCR. ABI's ΔΔCT Relative Quantification methodology was used for the analyses (applied Biosystems). Data were normalized to the housekeeping gene GAPDH and calibrated to the mock treated samples. Results presented are the average of two separate cell treatments/RNA isolations with duplicate Taqman Assays per RNA sample set.
Referring now to FIG. 15A. Plot of Quantitative Real Time PCR analyses of mRNA expression changes of A549 cells treated with MCI13E, MCI13F and Cisplatin. Data represents the average of four separate Q-RT PCR Assays. Genes of interest were normalized to GAPDH transcript levels, and are presented as fold changes relative to untreated cell samples. Cisplatin treatment increases transcription of DDB2 (A). Referring now to FIG. 15B. Bar graph of P21/GAPDH measured in cells subjected to different treatment schemes. Referring now to FIG. 15C. Bar graph of XPC/GAPDH measured under different treatment regimes XPC Concurrent MCI/Cisplatin treated cells show a decrease in gene transcription when compared to cells treated with Cisplatin alone (24 hour).

T1 sequence (P27694 181-422 limits assumed): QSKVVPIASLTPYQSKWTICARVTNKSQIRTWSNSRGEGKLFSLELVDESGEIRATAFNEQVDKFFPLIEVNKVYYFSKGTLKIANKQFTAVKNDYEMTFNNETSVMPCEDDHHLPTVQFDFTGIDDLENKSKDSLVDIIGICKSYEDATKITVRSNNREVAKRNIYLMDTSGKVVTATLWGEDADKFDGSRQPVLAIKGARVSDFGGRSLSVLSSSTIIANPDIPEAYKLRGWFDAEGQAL
T2 sequence (P27694 whole entry): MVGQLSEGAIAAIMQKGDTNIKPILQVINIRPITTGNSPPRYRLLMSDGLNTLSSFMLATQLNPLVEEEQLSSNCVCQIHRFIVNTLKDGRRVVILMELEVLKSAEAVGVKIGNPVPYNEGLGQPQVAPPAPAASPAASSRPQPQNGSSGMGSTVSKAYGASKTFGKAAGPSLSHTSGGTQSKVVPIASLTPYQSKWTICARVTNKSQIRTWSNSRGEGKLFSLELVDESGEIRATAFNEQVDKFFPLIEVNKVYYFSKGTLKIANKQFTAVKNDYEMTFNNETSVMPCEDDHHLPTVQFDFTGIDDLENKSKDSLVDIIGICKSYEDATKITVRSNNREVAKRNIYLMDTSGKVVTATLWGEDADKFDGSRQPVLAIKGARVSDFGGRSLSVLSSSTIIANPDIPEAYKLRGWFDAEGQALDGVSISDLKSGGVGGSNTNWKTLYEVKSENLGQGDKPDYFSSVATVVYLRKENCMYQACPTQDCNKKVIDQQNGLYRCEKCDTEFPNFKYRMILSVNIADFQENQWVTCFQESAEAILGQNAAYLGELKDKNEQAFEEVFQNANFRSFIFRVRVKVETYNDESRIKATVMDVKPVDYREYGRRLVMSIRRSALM
T2 sequence (P15927 whole entry partner): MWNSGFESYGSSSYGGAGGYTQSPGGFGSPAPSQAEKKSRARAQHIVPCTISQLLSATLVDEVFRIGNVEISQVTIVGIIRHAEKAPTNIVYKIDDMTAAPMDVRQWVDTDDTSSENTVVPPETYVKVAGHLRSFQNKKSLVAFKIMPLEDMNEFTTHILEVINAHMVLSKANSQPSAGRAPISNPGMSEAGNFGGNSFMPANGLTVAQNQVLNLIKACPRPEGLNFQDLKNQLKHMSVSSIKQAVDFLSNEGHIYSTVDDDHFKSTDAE
T2 sequence (P35244 whole entry partner): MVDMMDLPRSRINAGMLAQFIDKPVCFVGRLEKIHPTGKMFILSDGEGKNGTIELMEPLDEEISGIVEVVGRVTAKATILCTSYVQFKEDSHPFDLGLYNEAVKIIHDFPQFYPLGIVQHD
T3 sequence (P0AGE0 2-178): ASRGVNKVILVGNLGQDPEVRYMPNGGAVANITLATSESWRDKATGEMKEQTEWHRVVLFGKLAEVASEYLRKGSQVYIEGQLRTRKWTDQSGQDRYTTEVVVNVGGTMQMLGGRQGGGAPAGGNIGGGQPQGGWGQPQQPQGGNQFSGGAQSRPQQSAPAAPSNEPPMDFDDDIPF

For `O=C1OC(=O)[C@H]2C3C=CC(CC3)[C@@H]12` [CheSS19], the “Inhibition of DBD-A/B DNA binding” value (RPA DBD-A/B [1]) is listed as “potent inhibitory activity; also recorded: inhibits the DNA binding activity of the DBD-A/B construct with similar potency to the heterotrimeric RPA preparation”, the “Reversibility of full-length RPA inhibition (earlier report)” value [2] is listed as “irreversible” and the “Inhibition of full-length RPA DNA binding” value [3] is listed as “potent inhibitory activity”. For the same compound, the “Effect on EcSSB ssDNA binding” value (EcSSB) was “unaffected” and the “Reversibility of DBD-A/B inhibition” value (RPA DBD-A/B [4]) was “inhibiting DBD-A/B in an irreversible manner”.

In the case of `CCOc1ccc2cc(C3CC(c4ccc(Br)cc4)=NN3C(=O)CCC(=O)O)c(Cl)nc2c1` (stereo not shown) [TDRL-505], the “Mode of cell death (earlier report)” value [5] is listed as “cytotoxic via a non-apoptotic pathway”.

For `N.N.[Cl][Pt][Cl]` [cisplatin, cis-diamminedichloroplatinum (II)], the “p21 mRNA expression, single agent” value (p21) was “dramatic increase in p21 mRNA expression”.
